Source: US20160000803A1, “PHARMACEUTICAL COMPOSITION FOR TRANSMUCOSAL ADMINISTRATION OF BENZODIAZEPINES” (EASTGATE PHARMACEUTICALS INC., priority 2013, published 2016)
Like-named read-outs stand apart in the source and are kept apart here.

What was measured:
[1] = system: seizures; conditions: intranasal, human patients; cited from earlier work
[2] = Protocol: After combining of pre-weighed amounts of components they were gently triturated at room temperature (20-22° C.) using a stainless steel spatula until liquid phase is formed.
[3] = system: PTZ induced seizures; assay: Timed intravenous PTZ infusion test (ivPTZ); assay type: in vivo, mice
Text: For investigation of anti-seizure activity of invented formulations, a timed intravenous PTZ infusion test was employed.
The technique of timed i.v. PTZ (pentylenetetrazole) infusion test (ivPTZ) is a simple, reproducible and fast method for assessment of onset, peak, duration and potency of various anticonvulsants and proconvulsants in animals. This test provides an extremely sensitive parametric method for assessing seizure threshold in individual animals and a quantifiable endpoint can be obtained with a minimal number of animals. Different seizure types can be chosen as endpoint in this test. Usually, the first seizure occurring during the PTZ infusion is a myoclonic twitch, followed by clonic and, later, tonic seizures.
This method offers many advantages over the more widely used classical subcutaneous PTZ (scPTZ) test. Since with ivPTZ, test effects based on different endpoints are measured in individual animals, the number of animals required for a proper evaluation is much lower than would be needed for standard scPTZ test. […]
During the infusion, mice are observed for the onset of different types of seizures. The time latencies from the start of infusion to the appearance of the first clonus (characterized by rapid involuntary rhythmic contraction and relaxation of limbs), lasting longer than 5 seconds, are recorded. […]

Row | Compound | onset of action [1] | increase of solubility ([2]; MCT oil + 5% Menthol by weight vs pure MCT oil) [%] | increase of solubility ([2]; MCT with 8% Menthol vs pure MCT oil) [%] | PTZ dose threshold ([3]; intraperitoneal 2.5 mg/kg, 5 minutes time point, infusion 0.3 ml/min, PTZ 10 mg/ml) [mg/kg] | time of maximal protection ([3]; parenterally administered)
1 | Cc1ncc2n1-c1ccc(Cl)cc1C(c1ccccc1F)=NC2 [Midazolam] | approximately 10 minutes |  |  |  | 
2 | O=C1Nc2ccc(Cl)cc2C(c2ccccc2Cl)=NC1O (centres unmarked) [Lorazepam] |  | 28 | ~60 | 100 to 120 | approximately 5 minutes
